The source of these data is patent US20160297833A1, “THIENOPYRIMIDINES AS MKNK1 AND MKNK2 INHIBITORS” (BAYER PHARMA AKTIENGESELLSCHAFT, priority 2013, published 2016).

For the experiment, the target named is T1, human full-length MKNK1 (Homo sapiens, UniProt Q9BUB5, T385D).
T1 construct: GST (N); purchased Carna Biosciences 02-145; host or cells: insect cells (baculovirus expression system)
T1 sequence (Q9BUB5 1-424 isoform Q9BUB5-2 T344D): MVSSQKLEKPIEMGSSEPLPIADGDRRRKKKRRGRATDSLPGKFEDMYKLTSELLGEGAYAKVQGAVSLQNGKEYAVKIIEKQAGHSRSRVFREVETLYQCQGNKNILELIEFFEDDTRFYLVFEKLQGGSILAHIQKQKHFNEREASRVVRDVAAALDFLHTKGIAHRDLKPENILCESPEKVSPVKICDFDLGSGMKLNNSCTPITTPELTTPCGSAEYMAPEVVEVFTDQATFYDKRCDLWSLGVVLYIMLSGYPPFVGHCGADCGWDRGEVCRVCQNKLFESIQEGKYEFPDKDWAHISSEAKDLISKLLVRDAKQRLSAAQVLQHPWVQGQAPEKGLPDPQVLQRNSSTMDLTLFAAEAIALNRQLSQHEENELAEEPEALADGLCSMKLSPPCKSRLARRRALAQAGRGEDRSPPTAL
In words: MKNK1 kinase high ATP assay (TR-FRET). The experiment is classed as biochemical. Conditions: Table 1; MKNK1 kinase high ATP assay, 2 mM ATP; read-out: MKNK1 IC50. The method, boiled down: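 Full-length human MKNK1 (T385D) preincubated 15 min at 22 °C with compound in HEPES pH 7.5/MgCl2/DTT buffer; reaction with 2 mM ATP (final) and 0.06 μM biotinylated peptide (final), 30 min at 22 °C.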
By IC50 is commonly meant the midpoint of a concentration-inhibition curve. Consider `C[C@@H]1CN(C(=O)[C@H]2CCc3c(sc4ncnc(Nc5cc6cn[nH]c6cc5N(C)C)c34)C2)C[C@H](C)O1` [Example 189, [(7S)-4-{[6-(Dimethylamino)-1H-indazol-5-yl]amino}-5,6,7,8-tetrahydro[1]benzothieno[2,3-d]pyrimidin-7-yl][(2R,6S)-2,6-dimethylmorpholin-4-yl]methanone], for which the IC50 amounted to 0.1 nM.
Take `CCOc1cc2[nH]ncc2cc1Nc1ncnc2sc3c(c12)CC[C@H](C(=O)N(C)CC(C)(C)C)C3` [Example 173, (7S)—N-(2,2-Dimethylpropyl)-4-[(6-ethoxy-1H-indazol-5-yl)amino]-N-methyl-5,6,7,8-tetrahydro[1]benzothieno[2,3-d]pyrimidine-7-carboxamide]: the IC50 came to 0.4 nM.
`C[C@H]1COCCN1C(=O)[C@H]1CCc2c(sc3ncnc(Nc4cc5cn[nH]c5cc4OC4CN(C(=O)OC(C)(C)C)C4)c23)C1` [Example 267, tert-Butyl 3-[(5-{[(7S)-7-{[(3S)-3-methylmorpholin-4-yl]carbonyl}-5,6,7,8-tetrahydro[1]benzothieno[2,3-d]pyrimidin-4-yl]amino}-1H-indazol-6-yl)oxy]azetidine-1-carboxylate]: the IC50 was 0.3 nM.
As for `C[C@H]1COCCN1C(=O)[C@H]1CCc2c(sc3ncnc(Nc4cc5cn[nH]c5cc4OCCN4CCCC4)c23)C1` [Example 118, [(3S)-3-Methylmorpholin-4-yl][(7S)-4-({6-[2-(pyrrolidin-1-yl)ethoxy]-1H-indazol-5-yl}amino)-5,6,7,8-tetrahydro[1]benzothieno[2,3-d]pyrimidin-7-yl]methanone], the IC50 worked out at 92.3 nM.
With `CC(C)Oc1cc2[nH]ncc2cc1Nc1ncnc2sc3c(c12)CC[C@@H](C(=O)N(C)CC(F)F)C3` [Example 82, (7R)—N-(2,2-Difluoroethyl)-N-methyl-4-{[6-(propan-2-yloxy)-1H-indazol-5-yl]amino}-5,6,7,8-tetrahydro[1]benzothieno[2,3-d]pyrimidine-7-carboxamide] the figure was 8.1 nM; with `CCCCN(C)C(=O)[C@H]1CCc2c(sc3ncnc(Nc4cc5cn[nH]c5cc4N4CCC(N(C)C)CC4)c23)C1` [Example 105, (7S)—N-Butyl-4-({6-[4-(dimethylamino)piperidin-1-yl]-1H-indazol-5-yl}amino)-N-methyl-5,6,7,8-tetrahydro[1]benzothieno[2,3-d]pyrimidine-7-carboxamide], 14.1 nM; with `COc1cc2[nH]ncc2cc1Nc1ncnc2sc3c(c12)CC[C@H](C(=O)N(CCO)C1COC1)C3` [Example 37, (7S)—N-(2-Hydroxyethyl)-4-[(6-methoxy-1H-indazol-5-yl)amino]-N-(oxetan-3-yl)-5,6,7,8-tetrahydro[1]benzothieno[2,3-d]pyrimidine-7-carboxamide], 0.3 nM.
Take `COc1cc2[nH]ncc2cc1Nc1ncnc2sc3c(c12)CC[C@H](C(=O)N(C)CC(C)(C)C)C3` [Example 177, (7S)—N-(2,2-Dimethylpropyl)-4-[(6-methoxy-1H-indazol-5-yl)amino]-N-methyl-5,6,7,8-tetrahydro[1]benzothieno[2,3-d]pyrimidine-7-carboxamide]: the IC50 is 2.6 nM.
Take `C[C@@H]1COCCN1C(=O)[C@H]1CCc2c(sc3ncnc(Nc4cc5cn[nH]c5cc4OCCN4CCCC4)c23)C1` [Example 115, [(3R)-3-Methylmorpholin-4-yl][(7S)-4-({6-[2-(pyrrolidin-1-yl)ethoxy]-1H-indazol-5-yl}amino)-5,6,7,8-tetrahydro[1]benzothieno[2,3-d]pyrimidin-7-yl]methanone]: the IC50 is 71.5 nM.
